# Values joined by “and” are separate entries in the source; they are usually repeats but may differ in a detail not shown here. Equal entries are not always repeated. “Also recorded” adds a separate entry of the source.
# Tested on: glutamatergic pyramidal neurons from mouse layer five neocortex
# Test: Current-clamp recording in brain slices, action-potential firing
# Format: cell-based
# Details: for WT Cortical pyramidal neurons APs/1s: 0.25 μM, individual neurons; for Cumulative number of action potentials fired by each cell on increasing current injections: 250 nM, WT cortical pyramidal neurons
# Protocol: Parasagittal cortical brain slices were prepared from> P21 mice using standard procedures (adapted from Tai et al., PNAS 2014). Briefly, the mouse was deeply anaesthetized with isoflurane and decapitated. The brain was removed and placed into chilled artificial cerebrospinal fluid (aCSF) solution containing (in mM): 125 NaCl, 25 NaHCO3, 2.5 KCl, 1.25 NaH2PO4, 2 CaCl2, 2 MgCl2, 10 d-glucose, pH 7.3, osmolarity adjusted to ~306 mOsm using sucrose. All solutions were saturated with 95% O2 and 5% CO2 constantly perfused with 95% O2/5% CO2. Slices with a thickness of 400 µm were prepared using a vibratome (Ted Pella, Inc). Following sectioning, the slices were placed in a holding chamber and incubated in a water bath at 34 °C for 15 min. The brain slices were removed from the water bath and held at room temperature for 60 min prior to recording.
# All experiments involving rodent subjects were performed in accordance with the guidelines of the Canadian Council on Animal Care (CCAC). Following a 60-min incubation at room temperature, a brain slice was selected and placed on the stage of an upright microscope (SliceScope Pro 2000, Scientifica). The slice was constantly perfused with room temperature aCSF, containing 0.1% DMSO as a vehicle control, and oxygenated with 95% O2/5% CO2.The slice was visualized using brightfield microscopy, and a healthy neuron was selected from neocortical layer 5. […] Stimulation was applied in current-clamp mode, and consisted of a series of 1000ms square pulses, beginning at –20 pA and increasing by +20 pA increments (3000ms between pulses).
# The slice was incubated in circulating compound for 10 min before repeating the series of square pulse stimulations. Working stock solutions were prepared in DMSO at a concentration of 20 mM.
# All data analysis was done offline using ClampFit 10.7 (Molecular Devices). Data are presented as a mean ± SEM. For each sweep, the number of evoked APs was counted, and plotted as a function of current injection (beginning with –20 pA). […] Statistical significance was assessed using paired, two-way, student’s t-test applied at each current injection level with significance considered p < 0.05.
structure (smiles),measurement,setting,value
Cc1cc(S(=O)(=O)Nc2cscn2)c(F)cc1N(C)[C@H]1CCN(Cc2ccccc2)C1 [NBI-921352],"effect on action-potential firing, pyramidal neurons",0.25 µM NBI-921352,decreased the maximum firing rate; also recorded: reduced action-potential spiking
same,WT Cortical pyramidal neurons APs/1s,200 pA current injected,0 APs/1s and 12 APs/1s and 13 APs/1s
same,WT Cortical pyramidal neurons APs/1s,current injected 0 pA,0 APs/1s
same,WT Cortical pyramidal neurons APs/1s,current injected 20 pA,0 APs/1s
same,WT Cortical pyramidal neurons APs/1s,current injected 40 pA,0 APs/1s
same,WT Cortical pyramidal neurons APs/1s,"current injected 60 pA, row",0 APs/1s and 1 APs/1s and 2 APs/1s
same,WT Cortical pyramidal neurons APs/1s,"current injected 80 pA, row",0 APs/1s and 4 APs/1s and 6 APs/1s
same,WT Cortical pyramidal neurons APs/1s,"current injected 100 pA, row",0 APs/1s and 6 APs/1s and 8 APs/1s
same,WT Cortical pyramidal neurons APs/1s,"current injected 120 pA, row",0 APs/1s and 7 APs/1s and 9 APs/1s
same,WT Cortical pyramidal neurons APs/1s,"current injected 140 pA, row",0 APs/1s and 8 APs/1s and 10 APs/1s
same,WT Cortical pyramidal neurons APs/1s,"current injected 160 pA, row",0 APs/1s and 9 APs/1s and 12 APs/1s
same,WT Cortical pyramidal neurons APs/1s,"current injected 180 pA, row",0 APs/1s and 11 APs/1s (2×)
same,WT Cortical pyramidal neurons APs/1s,"current injected 200 pA, row",0 APs/1s and 12 APs/1s and 13 APs/1s
same,WT Cortical pyramidal neurons APs/1s,"current injected 220 pA, row",1 APs/1s and 13 APs/1s and 14 APs/1s
same,WT Cortical pyramidal neurons APs/1s,"current injected 240 pA, row",3 APs/1s and 14 APs/1s and 15 APs/1s
same,WT Cortical pyramidal neurons APs/1s,"current injected 260 pA, row",4 APs/1s and 15 APs/1s and 13 APs/1s
same,WT Cortical pyramidal neurons APs/1s,"current injected 280 pA, row",4 APs/1s and 15 APs/1s and 13 APs/1s
same,WT Cortical pyramidal neurons APs/1s,"current injected 300 pA, row",4 APs/1s and 17 APs/1s and 13 APs/1s
same,WT Cortical pyramidal neurons APs/1s,"current injected 320 pA, row",5 APs/1s and 18 APs/1s and 13 APs/1s
same,WT Cortical pyramidal neurons APs/1s,"current injected 340 pA, row",5 APs/1s and 19 APs/1s and 12 APs/1s
same,WT Cortical pyramidal neurons APs/1s,"current injected 360 pA, row",6 APs/1s and 20 APs/1s and 12 APs/1s
same,WT Cortical pyramidal neurons APs/1s,"current injected 380 pA, row",7 APs/1s (2×) and 21 APs/1s
same,WT Cortical pyramidal neurons APs/1s,"current injected 400 pA, row",8 APs/1s and 22 APs/1s and 13 APs/1s
same,WT Cortical pyramidal neurons APs/1s,"current injected 420 pA, row",7 APs/1s and 22 APs/1s and 5 APs/1s
same,WT Cortical pyramidal neurons APs/1s,"current injected 440 pA, row",7 APs/1s and 23 APs/1s and 4 APs/1s
same,WT Cortical pyramidal neurons APs/1s,current injected -20 pA,0 APs/1s
same,Cumulative number of action potentials fired by each cell on increasing current injections,up to current injected 0 pA,0
same,Cumulative number of action potentials fired by each cell on increasing current injections,up to current injected 20 pA,0
same,Cumulative number of action potentials fired by each cell on increasing current injections,up to current injected 40 pA,0
same,Cumulative number of action potentials fired by each cell on increasing current injections,up to current injected -20 pA,0
